Laboratory results published in patent US6204220A, “Substituted 2-oxo-3-alkynoic acids and methods of use thereof” (Rutgers, The State University of New Jersey, priority 1999, dated 2001).
Entries after “also recorded” stand apart in the source; their conditions may differ. Like-named read-outs stand apart in the source and are kept apart here. Each block holds one compound with its values, some of them ahead of it.

Legend:
resolved E1 [1] = molecular target: T1, resolved E1 (Escherichia coli, UniProt P0AFG8); assay: Inactivation of resolved E1 component (activity after reconstitution with E2-E3 subcomplex); assay type: biochemical, E. coli; conditions: for effect on catalytic activity of resolved E1 (in words): data not shown
T1 construct: made in house; host or cells: resolved from PDHc expressed in E. coli JRG1342
Description: Resolution of the E1 component from PDHc. […] PDHc was dialyzed against 50 mM Tris buffer, pH 9.0, containing 0.1 mM benzamidine.HCl, 0.15 M NaCl, 0.1 mM PMSF for 2 h, before applying to a column equilibrated and eluted with the same buffer.
(§1) Activity and related measurements on PDHc. The overall enzymatic reaction of the PDH complex was assayed using a Varian DMS 300 spectrophotometer or the Cobas Bio (Roche Diagnostics, Somerville, N.J.) automated centrifugal analyzer, monitoring the pyruvate-dependent reduction of NAD^+ at 340 nm. The reaction medium contained in 1 mL (DMS 300) or 0.25 mL (Cobas-Bio) test volume: 0.1 M Tris-HCl, pH 8.0; 1 mM MgCl2; 2 mM sodium pyruvate; 2.5 mM NAD^+; 0.052-0.2 mM coenzyme A; 0.2 mM ThDP; and 2.6 mM DTT at 27° C. The reaction was initiated either by adding enzyme to a mixture of all other components, or by adding CoA.
(§2) One unit of activity is defined as the amount of NADH produced (μmol) per min per mg protein. The activity of resolved E1 was measured after reconstitution with excess E2-E3 subcomplex using the NADH assay for PDHc activity.
(§3) Inactivation of 1-lip and 3-lip PDH complexes and resolved E1 component by 2-oxo-3-alkynoic acids. Intact 1-lip or 3-lip PDH complexes (0.050-0.1 mg) or resolved E1 component (0.05-0.09 mg) were incubated in the dark with 5 mM MgCl2, […] of 2-oxo-3-alkynoic acids in 20 mM KH2 PO4 buffer, pH 7.5 at room temperature in a total volume 0.5 mL. The initial activity (100%) was assayed prior to the addition of 2-oxo-3-alkynoic acids. Samples (50 μL) were withdrawn periodically and diluted into 1 mL of assay solution, containing all components necessary for assay of the overall activity. The activity of untreated enzyme was stable during the time of inactivation.

PDHc from E. coli = PDHc from E. coli (Escherichia coli, UniProt P0AFG8); conditions: cited from earlier work
resolved E1 [2] = molecular target: T1, resolved E1; conditions: read-out: Ki E1; calculated from data of Flournoy and Frey (1989); cited from earlier work
[3] = molecular target: T2, POX from Lactobacillus plantarum (Lactiplantibacillus plantarum, UniProt P37063); conditions: cited from earlier work
T2 sequence (P37063 1-603): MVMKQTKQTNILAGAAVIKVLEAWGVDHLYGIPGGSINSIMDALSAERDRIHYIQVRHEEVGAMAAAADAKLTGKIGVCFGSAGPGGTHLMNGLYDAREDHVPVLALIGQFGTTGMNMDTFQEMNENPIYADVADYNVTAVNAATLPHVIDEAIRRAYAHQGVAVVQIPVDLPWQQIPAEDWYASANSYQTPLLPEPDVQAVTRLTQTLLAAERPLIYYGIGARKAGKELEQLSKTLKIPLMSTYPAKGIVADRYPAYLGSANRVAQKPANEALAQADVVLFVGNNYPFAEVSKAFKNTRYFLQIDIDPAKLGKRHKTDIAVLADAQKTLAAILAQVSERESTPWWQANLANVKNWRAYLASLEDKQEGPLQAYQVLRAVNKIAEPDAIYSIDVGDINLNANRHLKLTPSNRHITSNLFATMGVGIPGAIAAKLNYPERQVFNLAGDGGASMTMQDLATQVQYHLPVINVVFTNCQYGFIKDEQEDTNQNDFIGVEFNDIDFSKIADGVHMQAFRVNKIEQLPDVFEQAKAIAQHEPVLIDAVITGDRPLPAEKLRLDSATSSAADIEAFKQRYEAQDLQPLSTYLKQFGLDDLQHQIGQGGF

[4] = molecular target: T3, PDC from Saccharomyces cerevisiae (Saccharomyces cerevisiae, UniProt P06169); conditions: cited from earlier work; for inhibition of brewer's yeast PDC (in words): Chiu & Jordan, 1994
T3 sequence (P06169 2-563 limits assumed): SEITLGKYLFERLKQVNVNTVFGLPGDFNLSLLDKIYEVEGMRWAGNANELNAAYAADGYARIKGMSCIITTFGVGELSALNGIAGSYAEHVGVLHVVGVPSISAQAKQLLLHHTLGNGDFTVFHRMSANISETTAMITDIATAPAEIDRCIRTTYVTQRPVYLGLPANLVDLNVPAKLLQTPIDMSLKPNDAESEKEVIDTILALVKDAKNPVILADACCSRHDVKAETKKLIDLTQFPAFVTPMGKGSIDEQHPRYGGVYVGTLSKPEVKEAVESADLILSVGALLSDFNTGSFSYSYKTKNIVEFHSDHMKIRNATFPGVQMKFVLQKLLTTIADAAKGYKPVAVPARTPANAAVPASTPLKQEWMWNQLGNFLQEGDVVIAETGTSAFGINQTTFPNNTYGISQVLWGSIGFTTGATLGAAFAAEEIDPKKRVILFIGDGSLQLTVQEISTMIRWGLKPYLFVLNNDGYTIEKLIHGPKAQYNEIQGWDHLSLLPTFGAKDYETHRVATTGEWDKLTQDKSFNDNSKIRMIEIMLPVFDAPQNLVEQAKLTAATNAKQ

[5] = molecular target: T4, Pyruvate decarboxylase from Saccharomyces cerevisiae (Saccharomyces cerevisiae, UniProt P06169); assay: Inactivation of pyruvate decarboxylase (PDC); assay type: biochemical
T4 construct: made in house; host or cells: E. coli
T4 sequence (P06169 2-563 limits assumed): T3 sequence (P06169 2-563 limits assumed)
Description: Pyruvate decarboxylase from Saccharomyces cerevisiae was overexpressed in E. coli (Baburina et al., 1994), then purified according to Farrenkopf & Jordan (1992). It was assayed spectrophotometrically by coupling to alcohol dehydrogenase (Holzer et al., 1960).

PDHc = PDHc (Escherichia coli, UniProt P0AFG8); assay: Inactivation of 1-lip and 3-lip PDH complexes by 2-oxo-3-alkynoic acids (overall NADH assay); assay type: biochemical, E. coli; design: made in house; host or cells: E. coli JRG1342 (PDHc null) with Ptac plasmid pGS501 (1-lip) or pGS523 (3-lip); conditions: for kapp, slower phase of inactivation: PDHc
Text: Bacterial strains and plasmids for PDHc. Derivatives of the PDHc null strain, E. coli JRG1342 contained Ptac expression plasmids encoding PDHc with E2 chains bearing three lipoyl domains (3-lip PDHc; pGS523, the wild type parental complex), or a single lipoyl domain in each E2 subunit (1-lip PDHc; pGS501), and variant 1-lip PDH complexes with mutations in the E1 gene leading to C259S (pGS457) and C259N (pGS596) substitutions (Machado et al., 1992; Machado, 1993).
Purification of PDHc. Cultures for purification of 1-lip and 3-lip PDH complexes were grown at 37° C. in LB medium containing glucose (0.2%) and ampicillin (50 μg/mL). The PDH complexes were induced by adding IPTG to 60 μM as described by Russell et al. (1992). Cells were disrupted by ultrasonic treatment after preincubation with lysozyme (0.6 mg/mL final concentration) for 15 min. The PDHc was sedimented by ultracentrifugation (100,000×g for 3 h) and further purified by chromatography on a
Sephacryl S-400 HR column. Fractions containing PDHc were pooled and treated with ammonium sulfate to 70% saturation. The enzyme was dissolved in buffer A (20 mM potassium phosphate, pH 7.8, 2 mM Na2 EDTA, 1 mM PMSF, and 1 mM benzamidine.HCl) then dialyzed against the same buffer. The PDH complexes were stored in buffer A at -20° C.
as §1, §2, §3

[6] = molecular target: T5, Pyruvate oxidase from Lactobacillus plantarum (Lactiplantibacillus plantarum, UniProt P37063); assay: Inactivation of pyruvate oxidase (POX); assay type: biochemical; conditions: for kinact/KI: read-out: kc/Ki,c (converted)
T5 construct: purchased Boehringer Mannheim (a gift, not bought)
T5 sequence (P37063 1-603): T2 sequence (P37063 1-603)
Description: Pyruvate oxidase from Lactobacillus plantarum was a gift from Boehringer Mannheim and was assayed according to the manufacturer's instructions at 25° C. by measuring the rate of 4-quinonimine production from H2 O2, 3,5-dichlorophenolsulfonic acid and 4-aminoantipyrine in the presence of horseradish peroxidase, at 546 nm, using a Cobas-Bio (Roche Diagnostics, Somerville, N.J.) automated centrifugal analyzer. The assay reaction mixture (total vol. 0.25 mL) contained: 40 mM sodium pyruvate; 50 mM potassium phosphate buffer, pH 6.5 with 10% (v/v) glycerol; 6.8 mM 3,5-dichlorophenolsulfonic acid; 0.03% of 4-aminoantipyrine; and 5u/mL of horseradish peroxidase. The reaction was initiated by adding POX.

E1 = molecular target: T6, E1 (Escherichia coli, UniProt P0AFG8); assay: Fluorescence measurements on binding to E1; design: species or system E. coli; conditions: 2 mM
T6 construct: made in house; host or cells: resolved from PDHc expressed in E. coli JRG1342
Description: Fluorescence measurements on the binding of 2-oxo-3-butynoic acid to E1. The fluorescence spectrum of apo-E1 (enzyme having no activity in the absence of ThDP) was measured using the SLM8100 spectrofluorimeter at 25° C. The excitation wavelength was 295 nm and the emission spectrum, presumably due to tryptophan, was recorded in the 300-450 nm range in a 1 mL or 3 mL quartz cuvette. The concentration of apo-E1 was 0.05-0.175 mg/mL in 20 mM KH2 PO4 buffer, pH 7.5. The excitation and emission monochromator slit widths were 4 nm. The V.3.0 software and KaleidaGraph computer program were used for data processing. The emission maximum for tryptophan (λ=335 nm) was determined by fitting the points from the peak using the KaleidaGraph computer program.

resolved E1 [7] = molecular target: T1, resolved E1; conditions: read-out: Ki, reversible inhibition of resolved E1; dichorophenolindophenol assay, Lowe & Perham 1984; cited from earlier work

SMILES: O=C(O)c1cc[c]([Hg][Cl])cc1 [p-chloromercuribenzoate, reference compound]
molar excess required to inactivate E1 (resolved E1 [1]): 300 fold molar excess

SMILES: O=C(O)C(=O)CF [fluoropyruvate]
Ki (PDHc from E. coli; calculated from data of Flournoy and Frey (1989), read-out: Ki PDHc): 33 µM | Ki (resolved E1 [2]): 28 µM

SMILES: CCC(=O)C(=O)O [2-oxobutanoic acid]
Km (PDHc from E. coli; Bisswanger (1981), read-out: Km (substrate of E. coli PDHc)): 3 mM | substrate-like activity with POX ([3]; manufacturer's information): fails to show substrate-like activity

SMILES: O=C(O)c1cc(SSc2ccc([N+](=O)[O-])c(C(=O)O)c2)ccc1[N+](=O)[O-] [5,5'-dithiobis-(2-nitrobenzoic acid), reference compound]
effect on catalytic activity of resolved E1 (in words) (resolved E1 [1]): not significantly affected

SMILES: CC(=O)[PH](=O)O [acetylphosphinate]
Ki ([4]; PDC from Saccharomyces cerevisiae): 470 µM | Ki (PDHc from E. coli; PDHc from E. coli): 0.15 µM | Ki ([3]; POX from Lactobacillus plantarum): 50 µM

SMILES: CC#CC(=O)C(=O)O [2-oxo-3-pentynoic acid, 2-Oxo-3-pentynoic acid]
inhibition / inactivation of PDC (in words) [5]: inhibit | Ki (PDHc): 276 µM | partial protection by pyruvate on slow phase of inactivation (PDHc; 1-lip PDHc, 3 mM inhibitor, 5 mM pyruvate, 1 mM ThDP): 21% | kapp, slower phase of inactivation (PDHc; 3 mM inhibitor): 0.048 min⁻¹ | kapp, slower phase of inactivation (PDHc; 4 mM inhibitor): 0.022 min⁻¹ | kinact/KI (PDHc; pH 7.5, read-out: ki/Ki PDHc): 25.3 M⁻¹ s⁻¹ | activity at 3000 µM (PDHc; read-out: residual activity after 26 min of inactivation, 1-lip PDHc, 3 mM inhibitor, absence of pyruvate): 14% | activity at 3000 µM (PDHc; read-out: residual activity after 26 min of inactivation, 1-lip PDHc, 3 mM inhibitor, presence of 5 mM pyruvate): 35% | inhibition / inactivation of POX (in words) [6]: inhibit | saturation by inhibitor ([6]; POX): no | kinact/KI ([6]; POX, from linear portion at high inhibitor concentrations (d)): 0.207 M⁻¹ s⁻¹ | kinact/KI ([6]; POX, from linear portion at low inhibitor concentrations (c)): 0.0473 M⁻¹ s⁻¹

SMILES: O=C(O)C(=O)C=Cc1ccccc1 [2-oxo-4-phenyl-3-butenoic acid, reference compound]
inhibition of brewer's yeast PDC (in words) [4]: inhibited | inhibition / inactivation of PDHc (in words) (PDHc): no effect

SMILES: CC(=O)C(=O)O [pyruvate, reference compound]
decrease of fluorescence intensity of E1 (E1; absence of ThDP): 21% | decrease of fluorescence intensity of E1 (E1; with ThDP 0.2 mM and MgCl2 1 mM): about 15%

Ki ([5]; PDC, read-out: Ki): 700 µM | kinact ([5]; PDC, read-out: first order rate constant of inactivation (ki) (converted)): 0.00633 s⁻¹ | kinact/KI ([5]; PDC, read-out: ki/Ki (converted)): 9 M⁻¹ s⁻¹
SMILES: O=C(O)C(=O)/C=C/c1ccc(Cl)cc1 [E-4(4-chlorophenyl)-2-oxo-3-butenoic acid, reference compound]

SMILES: O=C(O)C(=O)CBr [bromopyruvate]
Ki (resolved E1 [7]): 90 ± 15 µM

SMILES: O=C(O)C(=O)C#Cc1ccccc1 [2-oxo-4-phenyl-3-butynoic acid, reference compound]
inhibition of brewer's yeast PDC (in words) [4]: inhibited | inhibition / inactivation of PDHc (in words) (PDHc): no effect; also recorded: no inhibition

SMILES: CSS(C)(=O)=O [methylmethanethiolsulfonate, reference compound]
effect on catalytic activity of resolved E1 (in words) (resolved E1 [1]): not significantly affected
